{"source": "patent US20060258746A1", "about": "“Oral medicament for improvement in going to sleep or waking” (Kyowa Hakko Kogyo Co., Ltd., priority 2005, published 2006)", "key": {"subjects": {"system": "subjects", "test": "Test Example 1: intake of ornithine tablets, improvement in waking compared with before administration", "type": "in vivo, human"}, "normal subjects": {"system": "normal subjects", "test": "Test Example 2: double blind parallel group test against tablets without ornithine, going to sleep and waking rated by Visual Analogue Scale (VAS) method", "type": "in vivo, human", "details": "6 tablets of example 1 a day for 3 weeks; 7 subjects per group; 45 to 64 year", "experimental": "Six tablets of example 1 (the tablet containing ornithine) or 6 tablets of comparative example 1 (the tablet not containing ornithine) were administered to two groups with 7 subjects out of 14 normal subjects of each male and female between 45 to 64 year a day for 3 weeks.\nBefore the administration and just after the administration, the improvements in going to sleep and waking of each subject were evaluated using Visual Analogue Scale (VAS) method.\nSpecifically each end of the segment has a criterion of expression. Referring to FIG. 1, each subject marked somewhere in the line, corresponding to each term of the questionnaires. The distance (mm) from the left end of the line to the marked point was measured and the difference between before and after the test was calculated. The difference by the value before the test was shown in the percentage calculated; and each average value and standard deviation for each group were calculated. Further the average improvement ratio (%) was the value obtained by subtracting the average value of the placebo group from the average value of ornithine group. Further, it was confirmed that there was no difference between two groups before the administration test.\nFurther the test was carried out under a random assignment and the comparison between the double blind parallel groups was carried out. […]"}}, "data": [{"molecule": "NCCC[C@H](N)C(=O)O", "note": "[ornithine]", "values": [{"measurement": "effect on the waking process (conclusion of test result)", "setting": "subjects; oral intake of ornithine tablets", "result": "improved the waking process"}, {"measurement": "subjects who showed an improvement in waking", "setting": "subjects; oral, ornithine taken just before going to sleep", "result": "3 subjects out of the 6 subjects"}, {"measurement": "effect of intake just before going to sleep (conclusion of test result)", "setting": "subjects; oral, taken just before going to sleep", "result": "effective"}, {"measurement": "improvement in going to sleep (VAS, average improvement ratio vs placebo group, FIG. 2)", "setting": "normal subjects", "result": "improvement in going to sleep were obtained"}, {"measurement": "improvement in the waking process (VAS, average improvement ratio vs placebo group, FIG. 2)", "setting": "normal subjects", "result": "improvement in the waking process was evident"}]}]}
